In patent US11739074B2, “Ras inhibitors” (Revolution Medicines, Inc., priority 2019, dated 2023):
Where two headings read alike, the source gives them in different places.

Assays:
NCI-H358 (K-Ras G12C) = assay: CellTiter-Glo cell viability assay, H358; assay type: cell-based; details: Homo sapiens, NCI-H358, 120 h
Method in brief: (§1)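 Percent-of-DMSO luminescence values (CellTiter-Glo, day 5, plates equilibrated ~30 minutes at ambient temperature) were curve-fitted using a 4-parameter logistic equation; compounds had been added straight into wells containing the cells.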

AsPC-1 (K-Ras G12D) [1] = assay: CellTiter-Glo cell viability assay, AsPC-1; assay type: cell-based; details: Homo sapiens, ASPC1, 120 h, AsPC-1, K-Ras G12D, 5-day treatment; read-out: AsPC-1 Cell Viability IC50
Method in brief: as §1

KRAS G12V = KRAS G12V (Homo sapiens, UniProt P01116+P62937, G12V); assay: Ras-Raf disruption/FRET/MOA assay, KRAS G12V; assay type: biochemical
Description: (§2) Disruption of B-Raf Ras-Binding Domain (BRAF^RBD) Interaction with K-Ras by Compounds of the Invention (Also Called a FRET Assay or an MOA Assay)
(§3) Note—The following protocol describes a procedure for monitoring disruption of K-Ras G12C (GMP-PNP) binding to BRAF^RBD by a compound of the invention. This protocol may also be executed substituting other Ras proteins or nucleotides, such as K-Ras G12D and K-Ras G13D.
(§4) The purpose of this biochemical assay was to measure the ability of test compounds to facilitate ternary complex formation between a nucleotide-loaded K-Ras isoform and Cyclophilin A; the resulting ternary complex disrupts binding to a BRAF^RBD construct, inhibiting K-Ras signaling through a RAF effector.
(§5) In assay buffer containing 25 mM HEPES pH 7.3, 0.002% Tween20, 0.1% BSA, 100 mM NaCl and 5 mM MgCl2, tagless Cyclophilin A, His6-K-Ras-GMPPNP, and GST-BRAF^RBD were combined in a 384-well assay plate at final concentrations of 25 μM, 12.5 nM, and 50 nM, respectively. Compound was present in plate wells as a 10-point 3-fold dilution series starting at a final concentration of 30 μM. After incubation at 25° C. for 3 hours, a mixture of anti-His Eu-W1024 and anti-GST allophycocyanin was then added to assay sample wells at final concentrations of 10 nM and 50 nM, respectively, and the reaction incubated for an additional 1.5 hours. […] Compounds that facilitate disruption of a K-Ras:RAF complex were identified as those eliciting a decrease in the TR-FRET ratio relative to DMSO control wells.

AsPC-1 (K-Ras G12D) [2] = assay: Potency assay: pERK in AsPC-1 cells; assay type: cell-based; details: Homo sapiens, ASPC1, read-out: pERK EC50 (AsPC-1 KRAS G12D)
KRAS G13D = KRAS G13D (Homo sapiens, UniProt P01116+P62937, G13D); assay: Ras-Raf disruption/FRET/MOA assay, KRAS G13D; assay type: biochemical
Description: as §2, §3, §4, §5

KRAS G12S = KRAS G12S (Homo sapiens, UniProt P01116+P62937, G12S); assay: Ras-Raf disruption/FRET/MOA assay, KRAS G12S; assay type: biochemical
Description: as §2, §3, §4, §5

KRAS G13C = KRAS G13C (Homo sapiens, UniProt P01116+P62937, G13C); assay: Ras-Raf disruption/FRET/MOA assay, KRAS G13C; assay type: biochemical
Description: as §2, §3, §4, §5

KRAS G12D = KRAS G12D (Homo sapiens, UniProt P01116+P62937, G12D); assay: Ras-Raf disruption/FRET/MOA assay, KRAS G12D; assay type: biochemical
Description: as §2, §3, §4, §5

KRAS WT = KRAS WT (Homo sapiens, UniProt P01116+P62937); assay: Ras-Raf disruption/FRET/MOA assay, KRAS WT; assay type: biochemical
Description: as §2, §3, §4, §5

NRAS G12C = biological target: T1, NRAS G12C (Homo sapiens, UniProt P01111+P62937, G12C); assay: Ras-Raf disruption/FRET/MOA assay, NRAS G12C; assay type: biochemical
T1 construct: His6
Description: as §2, §3, §4, §5

KRAS G12C = KRAS G12C (Homo sapiens, UniProt P01116+P62937, G12C); assay: Ras-Raf disruption/FRET/MOA assay, KRAS G12C; assay type: biochemical; details: disruption of BRAF RBD binding, with Cyclophilin A; read-out: KRAS G12C FRET IC50
Description: as §2, §3, §4, §5

[3] = NCI-H358, K-Ras G12C, 5-day treatment, read-out: H358 Cell Viability IC50
[4] = disruption of BRAF RBD binding, with Cyclophilin A, read-out: KRAS G12V FRET IC50
[5] = disruption of BRAF RBD binding, with Cyclophilin A, read-out: KRAS G12D FRET IC50

Chain of KRAS G12C (P01116 1-169 isoform P01116-2 G12C limits assumed): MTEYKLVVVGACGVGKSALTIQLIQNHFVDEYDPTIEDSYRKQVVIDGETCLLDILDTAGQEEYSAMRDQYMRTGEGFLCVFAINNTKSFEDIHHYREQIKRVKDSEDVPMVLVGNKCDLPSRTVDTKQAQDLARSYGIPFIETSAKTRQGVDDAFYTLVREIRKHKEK
Chain of KRAS G12C (P62937 whole entry): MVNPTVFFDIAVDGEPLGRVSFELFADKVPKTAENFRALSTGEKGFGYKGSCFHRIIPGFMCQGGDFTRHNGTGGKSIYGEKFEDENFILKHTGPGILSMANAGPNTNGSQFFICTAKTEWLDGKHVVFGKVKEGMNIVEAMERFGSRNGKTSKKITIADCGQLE
Chain of KRAS G12V (P01116 1-169 isoform P01116-2 G12V limits assumed): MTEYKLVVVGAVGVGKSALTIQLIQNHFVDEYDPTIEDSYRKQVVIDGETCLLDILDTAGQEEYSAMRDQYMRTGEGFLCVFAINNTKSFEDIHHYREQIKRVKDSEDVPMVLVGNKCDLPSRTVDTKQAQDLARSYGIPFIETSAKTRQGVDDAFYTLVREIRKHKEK
Chain of KRAS G12V (P62937 whole entry, the tested form may be a part): as the sequence (P62937 whole entry) above
Chain of KRAS G12D (P01116 1-169 isoform P01116-2 G12D limits assumed): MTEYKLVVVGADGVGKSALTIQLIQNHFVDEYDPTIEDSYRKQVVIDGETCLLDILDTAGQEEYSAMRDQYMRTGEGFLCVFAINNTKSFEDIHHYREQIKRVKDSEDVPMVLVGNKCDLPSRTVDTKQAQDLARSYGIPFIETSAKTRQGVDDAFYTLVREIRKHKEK
Chain of KRAS G12D (P62937 whole entry): as the sequence (P62937 whole entry) above
Chain of KRAS WT (P01116 1-169 isoform P01116-2 limits assumed): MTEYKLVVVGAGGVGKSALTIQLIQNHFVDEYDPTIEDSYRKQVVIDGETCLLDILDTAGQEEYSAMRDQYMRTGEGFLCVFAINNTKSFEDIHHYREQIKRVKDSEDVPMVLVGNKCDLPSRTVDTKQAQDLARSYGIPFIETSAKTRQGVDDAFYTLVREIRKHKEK
Chain of KRAS WT (P62937 whole entry): as the sequence (P62937 whole entry) above
T1 sequence (P01111 whole entry G12C): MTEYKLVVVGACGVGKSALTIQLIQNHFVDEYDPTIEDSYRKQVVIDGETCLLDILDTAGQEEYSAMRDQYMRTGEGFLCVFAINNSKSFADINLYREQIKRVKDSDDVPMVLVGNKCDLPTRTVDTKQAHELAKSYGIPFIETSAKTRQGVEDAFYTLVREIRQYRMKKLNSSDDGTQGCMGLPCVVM
T1 sequence (P62937 whole entry): as the sequence (P62937 whole entry) above
Chain of KRAS G12S (P01116 1-169 isoform P01116-2 G12S limits assumed): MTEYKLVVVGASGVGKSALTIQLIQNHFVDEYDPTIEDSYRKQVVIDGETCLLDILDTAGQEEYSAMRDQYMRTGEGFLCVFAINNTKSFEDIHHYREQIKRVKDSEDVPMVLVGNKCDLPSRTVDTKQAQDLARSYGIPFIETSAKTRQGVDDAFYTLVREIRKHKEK
Chain of KRAS G12S (P62937 whole entry): as the sequence (P62937 whole entry) above
Chain of KRAS G13D (P01116 1-169 isoform P01116-2 G13D limits assumed): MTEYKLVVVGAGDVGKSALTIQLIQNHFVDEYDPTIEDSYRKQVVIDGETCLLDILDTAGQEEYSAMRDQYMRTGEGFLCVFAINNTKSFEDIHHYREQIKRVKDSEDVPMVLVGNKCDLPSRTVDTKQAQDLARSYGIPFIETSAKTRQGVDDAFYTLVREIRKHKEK
Chain of KRAS G13D (P62937 whole entry): as the sequence (P62937 whole entry) above
Chain of KRAS G13C (P01116 1-169 isoform P01116-2 G13C limits assumed): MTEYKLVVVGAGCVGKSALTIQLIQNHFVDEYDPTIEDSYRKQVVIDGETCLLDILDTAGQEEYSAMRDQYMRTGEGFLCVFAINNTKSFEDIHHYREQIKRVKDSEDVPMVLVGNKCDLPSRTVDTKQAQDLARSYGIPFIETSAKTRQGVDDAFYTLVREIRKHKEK
Chain of KRAS G13C (P62937 whole entry): as the sequence (P62937 whole entry) above

| IC50 (NCI-H358 (K-Ras G12C); [3]) | IC50 (AsPC-1 (K-Ras G12D) [1]) | IC50 (KRAS G12V; [4]) | SMILES | IC50 (KRAS G12C) | also measured |
| --- | --- | --- | --- | --- | --- |
| > 10000 nM | > 10000 nM | > 10000 nM | CCn1c(-c2cccnc2COC)c2c3cc(ccc31)-c1cc(O)cc(c1)C[C@H](NC(=O)[C@H](C(C)C)N(C)C(=O)CNC1=NCCO1)C(=O)N1CCC[C@H](N1)C(=O)OCC(C)(C)C2 [Compound 28] |  |  |
|  |  |  | CCn1c(-c2cnccc2COC)c2c3cc(ccc31)-c1cc(O)cc(c1)C[C@H](NC(=O)[C@H](C(C)C)N(C)C(=O)CN(C)C(=O)C1CN1)C(=O)N1CCC[C@H](N1)C(=O)OCC(C)(C)C2 (stereo partly drawn) [Compound 33] |  | EC50 (AsPC-1 (K-Ras G12D) [2]): < 5000 nM; IC50 (KRAS G13D): 100 to 1000 nM; IC50 (KRAS G12S): 10 to 100 nM; IC50 (KRAS G13C): 100 to 1000 nM; IC50 (KRAS G12V): 100 to 1000 nM; IC50 (KRAS G12D): 100 to 1000 nM; IC50 (KRAS WT): 100 to 1000 nM; IC50 (NRAS G12C; NRAS G12C FRET data IC50, NRAS G12C): 10 to 100 nM |
| 100 to 1000 nM | 1000 to 10000 nM | > 10000 nM | CCn1c(-c2cnccc2COC)c2c3cc(ccc31)-c1cccc(c1)C[C@H](NC(=O)[C@H](C(C)C)N(C)C(=O)CCN=C=Nc1ccccc1COC)C(=O)N1CCC[C@H](N1)C(=O)OCC(C)(C)C2 [Compound 63] |  |  |
|  | 1000 to 10000 nM | > 10000 nM | CCn1c(-c2cnccc2COC)c2c3cc(ccc31)-c1cccc(c1)C[C@H](NC(=O)[C@H](C(C)C)N1CC[C@H](CN=C=Nc3ccc(OC)cc3)C1)C(=O)N1CCC[C@H](N1)C(=O)OCC(C)(C)C2 [Compound 81] |  |  |
|  | > 10000 nM | 100 to 1000 nM | CCn1c(-c2cnccc2COC)c2c3cc(ccc31)-c1cc(O)cc(c1)C[C@H](NC(=O)[C@H](C(C)C)N(C)C(=O)[C@H]1CCN(C(=O)N3C[C@H]3C(=O)OC)C1)C(=O)N1CCC[C@H](N1)C(=O)OCC(C)(C)C2 [Compound 111] | 100 to 1000 nM | IC50 (KRAS G13D; disruption of BRAF RBD binding, with Cyclophilin A, read-out: KRAS G13D FRET IC50): 100 to 1000 nM; IC50 (KRAS G12S; disruption of BRAF RBD binding, with Cyclophilin A, read-out: KRAS G12S FRET IC50): 100 to 1000 nM; IC50 (KRAS G13C; disruption of BRAF RBD binding, with Cyclophilin A, read-out: KRAS G13C FRET IC50): 100 to 1000 nM; IC50 (KRAS G12D; [5]): 1000 to 10000 nM; IC50 (KRAS WT; disruption of BRAF RBD binding, with Cyclophilin A, read-out: KRAS WT FRET IC50): 100 to 1000 nM; IC50 (NRAS G12C; NRAS G12C, read-out: NRAS G12C FRET data IC50): 100 to 1000 nM |
|  |  |  | CCn1c(-c2cccnc2COC)c2c3cc(ccc31)-c1cc(O)cc(c1)C[C@H](NC(=O)[C@H](C(C)C)N(C)C(=O)CCNC(=O)NCCCl)C(=O)N1CCC[C@H](N1)C(=O)OCC(C)(C)C2 [Example 25, (2S)-2-(3-(3-(2-chloroethyl)ureido)-N-methylpropanamido)-N-((6^3S,4S)-1^1-ethyl-2^5-hydroxy-1^2-(2-(methoxymethyl)pyridin-3-yl)-10,10-dimethyl-5,7-dioxo-6^1,6^2,6^3,6^4,6^5,6^6-hexahydro-1^1H-8-oxa-1(5,3)-indola-6(1,3)-pyridazina-2(1,3)-benzenacycloundecaphane-4-yl)-3-methylbutanamide] |  | IC50 (NCI-H358 (K-Ras G12C); read-out: H358 Cell Viability IC50, NCI-H358, K-Ras G12C, 5-day treatment): > 10000 nM; IC50 (KRAS G12V): > 10000 nM |

| SMILES | IC50 (NCI-H358 (K-Ras G12C); [3]) | IC50 (AsPC-1 (K-Ras G12D) [1]) | IC50 (KRAS G12V; [4]) | IC50 (KRAS G12C) | also measured |
| --- | --- | --- | --- | --- | --- |
| CCn1c(-c2cnccc2COC)c2c3cc(ccc31)-c1cc(O)cc(c1)C[C@H](NC(=O)[C@@H](CN(C)C(=O)[C@@H]1CN1)C(C)C)C(=O)N1CCC[C@H](N1)C(=O)OCC(C)(C)C2 [Compound 60] | 1000 to 10000 nM | 1000 to 10000 nM | > 10000 nM | > 10000 nM |  |
| CCn1c(-c2cnccc2COC)c2c3cc(ccc31)-c1cc(O)cc(c1)C[C@H](NC(=O)[C@@H](CN(C)C(=O)[C@H]1CN1)C(C)C)C(=O)N1CCC[C@H](N1)C(=O)OCC(C)(C)C2 [Compound 99] |  | > 10000 nM | > 10000 nM | > 10000 nM |  |
| CCn1c(-c2cccnc2[C@H](C)OC)c2c3cc(ccc31)-c1cc(O)cc(c1)C[C@H](NC(=O)[C@H](C(C)C)N(C)C(=O)C1CC3(C1)CN(C(=O)[C@H]1CN1)C3)C(=O)N1CCC[C@H](N1)C(=O)OCC(C)(C)C2 [Compound 181] |  | > 10000 nM |  |  | IC50 (KRAS G12D; [5]): 100 to 1000 nM |
